These results are taken from patent US9399626B2, “2-thiopyrimidinones” (Pfizer Inc., priority 2011, dated 2016).

This assay concerns the target T1, MPO (purified from human polynuclear leukocytes) (Homo sapiens, UniProt P05164).
T1 construct: purified from human polynuclear leukocytes; purchased Calbiochem/EMD Biosciences; host or cells: human polynuclear leukocytes (natural source)
As to the kind of experiment: MPO Amplex Red Activity Assay. In kind it is biochemical. The conditions noted are these: Table 1A, 2 μM H2O2, pH 7.4. Summed up: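 Human leukocyte MPO […] oxidises 30 μM Amplex Red with 2 μM H2O2 in 50 mM NaPi pH 7.4, 150 mM NaCl, 1 mM DTPA, 2% DMSO. Resorufin fluorescence (ex 530/em 580 nm) read every 20 s, minus catalase background. kobs from the first 600 s, corrected for auto-inactivation, fit versus [I] for kinact/KI.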

The structures appear in SMILES notation.

T1 sequence (P05164 279-745 limits assumed): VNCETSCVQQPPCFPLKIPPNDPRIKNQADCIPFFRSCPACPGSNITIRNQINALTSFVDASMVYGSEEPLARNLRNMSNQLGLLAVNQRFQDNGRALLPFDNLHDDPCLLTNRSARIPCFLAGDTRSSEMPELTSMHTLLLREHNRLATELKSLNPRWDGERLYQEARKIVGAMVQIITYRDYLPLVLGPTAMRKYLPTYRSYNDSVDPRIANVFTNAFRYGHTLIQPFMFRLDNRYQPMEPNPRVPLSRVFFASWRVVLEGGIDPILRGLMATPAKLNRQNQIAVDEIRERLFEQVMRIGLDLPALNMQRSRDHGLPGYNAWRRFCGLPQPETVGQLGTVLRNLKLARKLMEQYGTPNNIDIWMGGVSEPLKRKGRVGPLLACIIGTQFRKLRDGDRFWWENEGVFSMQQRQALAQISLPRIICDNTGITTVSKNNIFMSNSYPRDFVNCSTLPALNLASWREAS
T1 sequence (P05164 165-273 limits assumed): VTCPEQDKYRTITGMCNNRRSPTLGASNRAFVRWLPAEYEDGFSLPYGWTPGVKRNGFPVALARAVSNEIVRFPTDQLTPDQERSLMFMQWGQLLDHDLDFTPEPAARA

As to `COc1ccc(-c2cc(=O)[nH]c(=S)n2CC(=O)N[C@H](C)CN)c(OC)c1` [Example 401, N-[(2R)-1-aminopropan-2-yl]-2-[6-(2,4-dimethoxyphenyl)-4-oxo-2-thioxo-3,4-dihydropyrimidin-1(2H)-yl]acetamide], the “MPO kinact/Ki” value was 4060 1/s per M.
Turning to `COc1ccc(-c2cc(=O)[nH]c(=S)n2CCCN)c(OCCO)c1` [Example 402, 1-(3-aminopropyl)-6-[2-(2-hydroxyethoxy)-4-methoxyphenyl]-2-thioxo-2,3-dihydropyrimidin-4(1H)-one], the “MPO kinact/Ki” value is listed as 4810 1/s per M.
On to `COc1ccc(-c2cc(=O)[nH]c(=S)n2CCCNC(=N)N)c(OCCO)c1` [Example 403, 1-(3-{6-[2-(2-hydroxyethoxy)-4-methoxyphenyl]-4-oxo-2-thioxo-3,4-dihydropyrimidin-1(2H)-yl}propyl)guanidine], for which the “MPO kinact/Ki” value is reported as 13300 1/s per M.
Consider `COc1ccc(-c2cc(=O)[nH]c(=S)n2CC(=O)NCCN)c(OCCO)c1` [Example 404, N-(2-aminoethyl)-2-{6-[2-(2-hydroxyethoxy)-4-methoxyphenyl]-4-oxo-2-thioxo-3,4-dihydropyrimidin-1(2H)-yl}acetamide], for which the “MPO kinact/Ki” value is 6200 1/s per M.
For `NCCNC(=O)Cn1c(-c2cc(F)ccc2OCCO)cc(=O)[nH]c1=S` [Example 405, N-(2-aminoethyl)-2-{6-[5-fluoro-2-(2-hydroxyethoxy)phenyl]-4-oxo-2-thioxo-3,4-dihydropyrimidin-1(2H)-yl}acetamide], the “MPO kinact/Ki” value is on record as 5970 1/s per M.
To `NCCCn1c(-c2cc(F)ccc2OCCO)cc(=O)[nH]c1=S` [Example 406, 1-(3-aminopropyl)-6-[5-fluoro-2-(2-hydroxyethoxy)phenyl]-2-thioxo-2,3-dihydropyrimidin-4(1H)-one] belongs 4480 1/s per M.
To `N=C(N)NCCCn1c(-c2cc(F)ccc2OCCO)cc(=O)[nH]c1=S` [Example 407, 1-(3-{6-[5-fluoro-2-(2-hydroxyethoxy)phenyl]-4-oxo-2-thioxo-3,4-dihydropyrimidin-1(2H)-yl}propyl)guanidine] belongs 18700 1/s per M; to `COc1ccc(-c2cc(=O)[nH]c(=S)n2CCC#N)c(OC)c1` [Example 408, 3-[6-(2,4-dimethoxyphenyl)-4-oxo-2-thioxo-3,4-dihydropyrimidin-1(2H)-yl]propanenitrile], 9890 1/s per M.
As to `COc1ccc(-c2cc(=O)[nH]c(=S)n2CCO)c(OCCO)c1` [Example 409, 6-[2-(2-hydroxyethoxy)-4-methoxyphenyl]-1-(2-hydroxyethyl)-2-thioxo-2,3-dihydropyrimidin-4(1H)-one], the “MPO kinact/Ki” value was 18000 1/s per M.
With `COc1ccc(-c2cc(=O)[nH]c(=S)n2CC(N)=O)cc1` [Example 410, 2-[6-(4-methoxyphenyl)-4-oxo-2-thioxo-3,4-dihydropyrimidin-1(2H)-yl]acetamide], the “MPO kinact/Ki” value is 3150 1/s per M.
In the case of `O=c1cc(-c2cc(F)ccc2OCCO)n(CCO)c(=S)[nH]1` [Example 411, 6-[5-fluoro-2-(2-hydroxyethoxy)phenyl]-1-(2-hydroxyethyl)-2-thioxo-2,3-dihydropyrimidin-4(1H)-one], the “MPO kinact/Ki” value is given as 15000 1/s per M.
In the case of `NC(=O)Cn1c(-c2cc(F)ccc2OCCO)cc(=O)[nH]c1=S` [Example 412, 2-{6-[5-fluoro-2-(2-hydroxyethoxy)phenyl]-4-oxo-2-thioxo-3,4-dihydropyrimidin-1(2H)-yl}acetamide], the “MPO kinact/Ki” value is recorded as 3980 1/s per M.
As for `O=c1cc(-c2ccc(F)cc2OCCO)n(CCO)c(=S)[nH]1` [Example 413, 6-[4-fluoro-2-(2-hydroxyethoxy)phenyl]-1-(2-hydroxyethyl)-2-thioxo-2,3-dihydropyrimidin-4(1H)-one], the “MPO kinact/Ki” value was 6560 1/s per M.
As for `NC(=O)Cn1c(-c2ccc(F)cc2OCCO)cc(=O)[nH]c1=S` [Example 414, 2-{6-[4-fluoro-2-(2-hydroxyethoxy)phenyl]-4-oxo-2-thioxo-3,4-dihydropyrimidin-1(2H)-yl}acetamide], the figure is 1680 1/s per M.
As for `NCCNC(=O)Cn1c(-c2ccc(F)cc2OCCO)cc(=O)[nH]c1=S` [Example 415, N-(2-aminoethyl)-2-{6-[4-fluoro-2-(2-hydroxyethoxy)phenyl]-4-oxo-2-thioxo-3,4-dihydropyrimidin-1(2H)-yl}acetamide], the “MPO kinact/Ki” value is listed as 3910 1/s per M.
In the case of `COc1cccc(-c2cc(=O)[nH]c(=S)n2CC(N)=O)c1OC` [Example 416, 2-[6-(2,3-dimethoxyphenyl)-4-oxo-2-thioxo-3,4-dihydropyrimidin-1(2H)-yl]acetamide], the “MPO kinact/Ki” value is recorded as 4480 1/s per M.
With `COc1cc(Cl)ccc1-c1cc(=O)[nH]c(=S)n1CC(N)=O` [Example 417, 2-[6-(4-chloro-2-methoxyphenyl)-4-oxo-2-thioxo-3,4-dihydropyrimidin-1(2H)-yl]acetamide], the “MPO kinact/Ki” value is 9280 1/s per M.
For the molecule `COc1cc(C)ccc1-c1cc(=O)[nH]c(=S)n1CC(N)=O` [Example 418, 2-[6-(2-methoxy-4-methylphenyl)-4-oxo-2-thioxo-3,4-dihydropyrimidin-1(2H)-yl]acetamide], the “MPO kinact/Ki” value is recorded as 11500 1/s per M.
Turning to `COc1ccc(F)cc1-c1cc(=O)[nH]c(=S)n1CCONC(=N)N` [Example 419, 1-{2-[6-(5-fluoro-2-methoxyphenyl)-4-oxo-2-thioxo-3,4-dihydropyrimidin-1(2H)-yl]ethoxy}guanidine], the “MPO kinact/Ki” value was 1200 1/s per M.
Consider `COc1ccc(-c2cc(=O)[nH]c(=S)n2CC(N)=O)c(OCCO)c1` [Example 420, 2-{6-[2-(2-hydroxyethoxy)-4-methoxyphenyl]-4-oxo-2-thioxo-3,4-dihydropyrimidin-1(2H)-yl}acetamide], for which the “MPO kinact/Ki” value is reported as 5210 1/s per M.
With `CC(=O)OCCOc1ccc(F)cc1-c1cc(=O)[nH]c(=S)n1CC(N)=O` [Example 421, 2-{2-[3-(2-amino-2-oxoethyl)-6-oxo-2-thioxo-1,2,3,6-tetrahydropyrimidin-4-yl]-4-fluorophenoxy}ethyl acetate], the “MPO kinact/Ki” value is recorded as 4950 1/s per M.
For the molecule `COc1ccc(OCCO)cc1-c1cc(=O)[nH]c(=S)n1CC(N)=O` [Example 422, 2-{6-[5-(2-hydroxyethoxy)-2-methoxyphenyl]-4-oxo-2-thioxo-3,4-dihydropyrimidin-1(2H)-yl}acetamide], the “MPO kinact/Ki” value is recorded as 4460 1/s per M.
Turning to `COc1cc(OCC(N)=O)ccc1-c1cc(=O)[nH]c(=S)n1CCN` [Example 423, 2-{4-[3-(2-aminoethyl)-6-oxo-2-thioxo-1,2,3,6-tetrahydropyrimidin-4-yl]-3-methoxyphenoxy}acetamide], the “MPO kinact/Ki” value was 3290 1/s per M.
Take `NCCNC(=O)Cn1c(-c2cc(Cl)ccc2OCCO)cc(=O)[nH]c1=S` [Example 424, N-(2-aminoethyl)-2-{6-[5-chloro-2-(2-hydroxyethoxy)phenyl]-4-oxo-2-thioxo-3,4-dihydropyrimidin-1(2H)-yl}acetamide]: the “MPO kinact/Ki” value is given as 6870 1/s per M.
Take `O=c1cc(-c2cc(Cl)ccc2OCCO)n(CCO)c(=S)[nH]1` [Example 425, 6-[5-chloro-2-(2-hydroxyethoxy)phenyl]-1-(2-hydroxyethyl)-2-thioxo-2,3-dihydropyrimidin-4(1H)-one]: the “MPO kinact/Ki” value is given as 13400 1/s per M.
With `NC(=O)Cn1c(-c2cc(Cl)ccc2OCCO)cc(=O)[nH]c1=S` [Example 426, 2-{6-[5-chloro-2-(2-hydroxyethoxy)phenyl]-4-oxo-2-thioxo-3,4-dihydropyrimidin-1(2H)-yl}acetamide], the “MPO kinact/Ki” value is reported as 4410 1/s per M.
To `NCCn1c(-c2cc(Cl)ccc2OCCO)cc(=O)[nH]c1=S` [Example 427, 1-(2-aminoethyl)-6-[5-chloro-2-(2-hydroxyethoxy)phenyl]-2-thioxo-2,3-dihydropyrimidin-4(1H)-one] belongs 5360 1/s per M.
To `NCCNC(=O)Cn1c(-c2ccccc2OCCO)cc(=O)[nH]c1=S` [Example 428, N-(2-aminoethyl)-2-{6-[2-(2-hydroxyethoxy)phenyl]-4-oxo-2-thioxo-3,4-dihydropyrimidin-1(2H)-yl}acetamide] belongs 5890 1/s per M; to `COc1ccc(-c2cc(=O)[nH]c(=S)n2CC(=O)NCC(C)(C)N)c(OC)c1` [Example 429, N-(2-amino-2-methylpropyl)-2-[6-(2,4-dimethoxyphenyl)-4-oxo-2-thioxo-3,4-dihydropyrimidin-1(2H)-yl]acetamide], 6620 1/s per M; to `COc1ccc(-c2cc(=O)[nH]c(=S)n2CC(=O)N[C@H]2C[C@@H](N)C2)c(OC)c1` [Example 430, N-(cis-3-aminocyclobutyl)-2-[6-(2,4-dimethoxyphenyl)-4-oxo-2-thioxo-3,4-dihydropyrimidin-1(2H)-yl]acetamide], 9440 1/s per M.
Turning to `COc1ccc(-c2cc(=O)[nH]c(=S)n2CC(=O)N2CC(N)C2)c(OC)c1` [Example 431, 1-[2-(3-aminoazetidin-1-yl)-2-oxoethyl]-6-(2,4-dimethoxyphenyl)-2-thioxo-2,3-dihydropyrimidin-4(1H)-one], the “MPO kinact/Ki” value is listed as 3440 1/s per M.
On to `COc1ccc(-c2cc(=O)[nH]c(=S)n2CC(=O)NC(C)(C)CN)c(OC)c1` [Example 432, N-(1-amino-2-methylpropan-2-yl)-2-[6-(2,4-dimethoxyphenyl)-4-oxo-2-thioxo-3,4-dihydropyrimidin-1(2H)-yl]acetamide], for which the “MPO kinact/Ki” value is on record as 1410 1/s per M.
As for `COc1ccc(-c2cc(=O)[nH]c(=S)n2CC(=O)N[C@H](C)[C@@H](C)N)c(OC)c1` [Example 433, N-[(2R,3R)-3-aminobutan-2-yl]-2-[6-(2,4-dimethoxyphenyl)-4-oxo-2-thioxo-3,4-dihydropyrimidin-1(2H)-yl]acetamide], the “MPO kinact/Ki” value is reported as 3490 1/s per M.
